Results reported in patent US9605004B2, “Chemical compounds” (SYNGENTA LIMITED, priority 2013, dated 2017).

Key:
[1] = system: a variety of test species; experiment: Pre-emergence herbicidal activity (Example 8a, Table 2); assay type: in vivo; set-up: key: 0 = no damage to plant, 5 = total damage to plant; conditions: application pre-emergence, rate 1000 g/ha, evaluated after 13 days
How it was run: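 Damage rated 13 days post-treatment on a 0-5 scale, 5 meaning total plant damage. Pots were sprayed pre-emergence, one day after sowing, with an acetone/water-derived aqueous spray containing 0.5% Tween 20. Plants grew under 14 h light, 65% humidity, 24/16 °C, watered twice daily.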

[2] = system: a variety of test species; experiment: Post-emergence herbicidal activity (Example 8b, Table 3); assay type: in vivo; conditions: application post-emergence, rate 1000 g/ha, evaluated after 13 days, scale 0-5; for Herbicidal damage score, ABUTH: Abutilon theophrasti; for Herbicidal damage score, ALOMY: Alopecurus myosuroides; for Herbicidal damage score, AMARE: Amaranthus retroflexus; for Herbicidal damage score, ECHCG: Echinochloa crus-galli; for Herbicidal damage score, SETFA: Setaria faberi; for Herbicidal damage score, ZEAMX: Zea mays
How it was run: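 Damage rating 0 (none) to 5 (total), assessed 13 days after spraying. Plants received the compound in acetone/water 50:50 with 0.5% Tween 20 at 8 days post-sowing, then were kept at 24/16 °C, 14 h photoperiod, 65% RH.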

CC1=C(Cl)C(=O)N(c2cc(S(C)(=O)=O)n(C)n2)C1O (stereo not drawn) [Compound B38]
Pre-emergence herbicidal activity, damage score ABUTH [1]: 5 | Pre-emergence herbicidal activity, damage score ALOMY [1]: 4 | Pre-emergence herbicidal activity, damage score AMARE [1]: 5 | Pre-emergence herbicidal activity, damage score ECHCG [1]: 5 | Pre-emergence herbicidal activity, damage score SETFA [1]: 5 | Pre-emergence herbicidal activity, damage score ZEAMX [1]: 4 | Herbicidal damage score, ABUTH [2]: 5 | Herbicidal damage score, ALOMY [2]: 5 | Herbicidal damage score, AMARE [2]: 5 | Herbicidal damage score, ECHCG [2]: 5 | Herbicidal damage score, SETFA [2]: 5 | Herbicidal damage score, ZEAMX [2]: 5

CC1=C(Cl)C(=O)N(c2cc(C(C)C(F)(F)F)n(C)n2)C1O (stereo not drawn) [Compound B39]
Pre-emergence herbicidal activity, damage score ABUTH [1]: 5 | Pre-emergence herbicidal activity, damage score ALOMY [1]: 4 | Pre-emergence herbicidal activity, damage score AMARE [1]: 5 | Pre-emergence herbicidal activity, damage score ECHCG [1]: 5 | Pre-emergence herbicidal activity, damage score SETFA [1]: 5 | Pre-emergence herbicidal activity, damage score ZEAMX [1]: 4 | Herbicidal damage score, ABUTH [2]: 5 | Herbicidal damage score, ALOMY [2]: 5 | Herbicidal damage score, AMARE [2]: 5 | Herbicidal damage score, ECHCG [2]: 5 | Herbicidal damage score, SETFA [2]: 5 | Herbicidal damage score, ZEAMX [2]: 5

C/C=C\c1cc(N2C(=O)C(Cl)=C(C)C2O)nn1C (stereo not drawn) [Compound B43]
Pre-emergence herbicidal activity, damage score ABUTH [1]: 5 | Pre-emergence herbicidal activity, damage score ALOMY [1]: 2 | Pre-emergence herbicidal activity, damage score AMARE [1]: 5 | Pre-emergence herbicidal activity, damage score ECHCG [1]: 4 | Pre-emergence herbicidal activity, damage score SETFA [1]: 4 | Pre-emergence herbicidal activity, damage score ZEAMX [1]: 1 | Herbicidal damage score, ABUTH [2]: 5 | Herbicidal damage score, ALOMY [2]: 4 | Herbicidal damage score, AMARE [2]: 4 | Herbicidal damage score, ECHCG [2]: 5 | Herbicidal damage score, SETFA [2]: 5 | Herbicidal damage score, ZEAMX [2]: 2

C=C(C)c1cc(N2C(=O)C(Cl)=C(C)C2O)nn1C (stereo not drawn) [Compound B45]
Pre-emergence herbicidal activity, damage score ABUTH [1]: 5 | Pre-emergence herbicidal activity, damage score ALOMY [1]: 4 | Pre-emergence herbicidal activity, damage score AMARE [1]: 5 | Pre-emergence herbicidal activity, damage score ECHCG [1]: 5 | Pre-emergence herbicidal activity, damage score SETFA [1]: 5 | Pre-emergence herbicidal activity, damage score ZEAMX [1]: 3 | Herbicidal damage score, ABUTH [2]: 5 | Herbicidal damage score, ALOMY [2]: 5 | Herbicidal damage score, AMARE [2]: 5 | Herbicidal damage score, ECHCG [2]: 5 | Herbicidal damage score, SETFA [2]: 5 | Herbicidal damage score, ZEAMX [2]: 4

CC(C)=C(C)c1cc(N2C(=O)C(Cl)=C(C)C2O)nn1C (stereo not drawn) [Compound B48]
Pre-emergence herbicidal activity, damage score ABUTH [1]: 4 | Pre-emergence herbicidal activity, damage score ALOMY [1]: 4 | Pre-emergence herbicidal activity, damage score AMARE [1]: 5 | Pre-emergence herbicidal activity, damage score ECHCG [1]: 4 | Pre-emergence herbicidal activity, damage score SETFA [1]: 3 | Pre-emergence herbicidal activity, damage score ZEAMX [1]: 1 | Herbicidal damage score, ABUTH [2]: 5 | Herbicidal damage score, ALOMY [2]: 4 | Herbicidal damage score, AMARE [2]: 5 | Herbicidal damage score, ECHCG [2]: 5 | Herbicidal damage score, SETFA [2]: 4 | Herbicidal damage score, ZEAMX [2]: 1

CCO/C=C\c1cc(N2C(=O)C(Cl)=C(C)C2O)nn1C (stereo not drawn) [Compound B49]
Pre-emergence herbicidal activity, damage score ABUTH [1]: 0 | Pre-emergence herbicidal activity, damage score ALOMY [1]: 0 | Pre-emergence herbicidal activity, damage score AMARE [1]: 0 | Pre-emergence herbicidal activity, damage score ECHCG [1]: 0 | Pre-emergence herbicidal activity, damage score SETFA [1]: 0 | Pre-emergence herbicidal activity, damage score ZEAMX [1]: 0 | Herbicidal damage score, ABUTH [2]: 2 | Herbicidal damage score, ALOMY [2]: 0 | Herbicidal damage score, AMARE [2]: 4 | Herbicidal damage score, ECHCG [2]: 0 | Herbicidal damage score, SETFA [2]: 3 | Herbicidal damage score, ZEAMX [2]: 1

CCn1nc(N2C(=O)C(Cl)=C(C)C2O)cc1C(F)(F)F (stereo not drawn) [Compound C1]
Pre-emergence herbicidal activity, damage score ABUTH [1]: 5 | Pre-emergence herbicidal activity, damage score ALOMY [1]: 4 | Pre-emergence herbicidal activity, damage score AMARE [1]: 5 | Pre-emergence herbicidal activity, damage score ECHCG [1]: 5 | Pre-emergence herbicidal activity, damage score SETFA [1]: 4 | Pre-emergence herbicidal activity, damage score ZEAMX [1]: 4 | Herbicidal damage score, ABUTH [2]: 5 | Herbicidal damage score, ALOMY [2]: 5 | Herbicidal damage score, AMARE [2]: 5 | Herbicidal damage score, ECHCG [2]: 5 | Herbicidal damage score, SETFA [2]: 4 | Herbicidal damage score, ZEAMX [2]: 3

CCn1nc(N2C(=O)C(Cl)=C(C)C2O)cc1C(C)(C)C (stereo not drawn) [Compound C2]
Pre-emergence herbicidal activity, damage score ABUTH [1]: 4 | Pre-emergence herbicidal activity, damage score ALOMY [1]: 4 | Pre-emergence herbicidal activity, damage score AMARE [1]: 5 | Pre-emergence herbicidal activity, damage score ECHCG [1]: 4 | Pre-emergence herbicidal activity, damage score SETFA [1]: 5 | Pre-emergence herbicidal activity, damage score ZEAMX [1]: 2 | Herbicidal damage score, ABUTH [2]: 5 | Herbicidal damage score, ALOMY [2]: 5 | Herbicidal damage score, AMARE [2]: 4 | Herbicidal damage score, ECHCG [2]: 5 | Herbicidal damage score, SETFA [2]: 5 | Herbicidal damage score, ZEAMX [2]: 3

CCn1nc(N2C(=O)C(Cl)=C(C)C2O)c2c1C(C)(C)CC2 (stereo not drawn) [Compound C3]
Pre-emergence herbicidal activity, damage score ABUTH [1]: 5 | Pre-emergence herbicidal activity, damage score ALOMY [1]: 4 | Pre-emergence herbicidal activity, damage score AMARE [1]: 5 | Pre-emergence herbicidal activity, damage score ECHCG [1]: 5 | Pre-emergence herbicidal activity, damage score SETFA [1]: 4 | Pre-emergence herbicidal activity, damage score ZEAMX [1]: 2 | Herbicidal damage score, ABUTH [2]: 5 | Herbicidal damage score, ALOMY [2]: 4 | Herbicidal damage score, AMARE [2]: 5 | Herbicidal damage score, ECHCG [2]: 5 | Herbicidal damage score, SETFA [2]: 5 | Herbicidal damage score, ZEAMX [2]: 4

CC1=C(Cl)C(=O)N(c2cc(C(F)(F)F)n(C(C)C)n2)C1O (stereo not drawn) [Compound C4]
Pre-emergence herbicidal activity, damage score ABUTH [1]: 4 | Pre-emergence herbicidal activity, damage score ALOMY [1]: 3 | Pre-emergence herbicidal activity, damage score AMARE [1]: 4 | Pre-emergence herbicidal activity, damage score ECHCG [1]: 4 | Pre-emergence herbicidal activity, damage score SETFA [1]: 4 | Pre-emergence herbicidal activity, damage score ZEAMX [1]: 3 | Herbicidal damage score, ABUTH [2]: 4 | Herbicidal damage score, ALOMY [2]: 4 | Herbicidal damage score, AMARE [2]: 4 | Herbicidal damage score, ECHCG [2]: 5 | Herbicidal damage score, SETFA [2]: 4 | Herbicidal damage score, ZEAMX [2]: 2

CC1=C(Cl)C(=O)N(c2cc(C(F)(F)F)n(CC(F)(F)F)n2)C1O (stereo not drawn) [Compound C5]
Pre-emergence herbicidal activity, damage score ABUTH [1]: 2 | Pre-emergence herbicidal activity, damage score ALOMY [1]: 3 | Pre-emergence herbicidal activity, damage score AMARE [1]: 3 | Pre-emergence herbicidal activity, damage score ECHCG [1]: 4 | Pre-emergence herbicidal activity, damage score SETFA [1]: 4 | Pre-emergence herbicidal activity, damage score ZEAMX [1]: 2 | Herbicidal damage score, ABUTH [2]: 4 | Herbicidal damage score, ALOMY [2]: 5 | Herbicidal damage score, AMARE [2]: 5 | Herbicidal damage score, ECHCG [2]: 5 | Herbicidal damage score, SETFA [2]: 5 | Herbicidal damage score, ZEAMX [2]: 3

CCn1nc(N2C(=O)C(Cl)=C(C)C2O)cc1C(F)(F)F (stereo not drawn) [Compound C6]
Pre-emergence herbicidal activity, damage score ABUTH [1]: 5 | Pre-emergence herbicidal activity, damage score ALOMY [1]: 4 | Pre-emergence herbicidal activity, damage score AMARE [1]: 5 | Pre-emergence herbicidal activity, damage score ECHCG [1]: 5 | Pre-emergence herbicidal activity, damage score SETFA [1]: 4 | Pre-emergence herbicidal activity, damage score ZEAMX [1]: 4 | Herbicidal damage score, ABUTH [2]: 5 | Herbicidal damage score, ALOMY [2]: 5 | Herbicidal damage score, AMARE [2]: 5 | Herbicidal damage score, ECHCG [2]: 5 | Herbicidal damage score, SETFA [2]: 4 | Herbicidal damage score, ZEAMX [2]: 3
